Data as given in patent publication US20090215742A1, “AMIDE […]” (PFIZER, INC., priority 2005, published 2009).

Molecular target: T1, HSP-90 (Homo sapiens, UniProt P07900)
T1 construct: fused on or other part: 6-His tag at the C-terminus
Assay: HSP-90 SPA (scintillation proximity assay) competition binding assay, displacement of tritiated propyl-Geldanamycin
Conditions: for inhibition at 1 µM: read-out: % inhibition @ 1 μM; for inhibition at 10 µM: read-out: % inhibition @ 10 μM
Procedure: Compounds of the present invention were evaluated for potency against HSP-90 using a SPA (scintillation proximity assay) competition binding assay. Briefly, either full length or N-terminal HSP-90 that contains a 6-His tag on its C-terminus binds to copper on Yttrium-silicate scintillant beads via the His-tag. Tritiated propyl-Geldanamycin (pGA), whose structure is shown below, is an analog of a natural inhibitor of HSP-90 called Geldanamycin.
Tritiated pGA, which contains a tritiated propyl-amine group added at the #17 position, binds HSP-90 and brings the isotope into proximity with the beads. […] The beta signal emitted from the isotope excites the scintillant, which creates a measurable signal. As competitive compounds are added to the assay mixture, they compete with bound tritiated pGA at the ATP-binding site on the N-terminal of HSP-90. When a compound displaces the labeled pGA, the signal is reduced (the beta-particles are no longer in proximity with the bead). This reduction in signal is used to quantify the extent to which the inhibitor/compound is competitive with pGA.
Typical reaction solutions contained 30 nM HSP-90 and 200 nM ^3H-pGA in binding buffer (100 mM Hepes, pH 7.5 and 150 mM KCl). […] Inhibitors were added to the HSP-90/^3H-pGA solutions at eleven different concentrations for Ki determinations. […] To determine percent inhibition, the compound was tested at 1 and 10 μM. The final DMSO in the samples was 4%. Copper-Ysi beads (Amersham, #RPNQ0096) that have been diluted in binding buffer were added to each well to give a final concentration of 100 μg/well. The plates were sealed, covered with a foil-covered lid and shaken for 30 minutes at room temperature. The beads were allowed to settle for 30 minutes after which the plates were counted using a Packard TopCount NXT instrument. This procedure has also been adapted for medium throughput using a Beckman Biomek FX. Samples were run in duplicate and on two separate days to assure an accurate value of Ki.
For Ki determinations, the corrected cpm's (actual cpm's minus background) were plotted vs. inhibitor concentration using GraphPad Prism software. […] The IC50 was then used to calculate the Ki by using the Cheng-Prusoff equation: […]
This is normally true when the observed IC50 is […] the HSP-90 concentration. For a tight binding inhibitor, the following equation can be applied: […]
EL and ELo are the radioligand-HSP-90 complexes in the presence and absence of inhibitor, respectively. EL/ELo represents the fractional signal in the presence of inhibitor. Io, Eo, and Lo are the inhibitor, HSP-90, and radioligand concentrations, respectively.

In the case of `CCc1nc(COCC2CCN(C(=O)c3ccc(O)cc3O)C2)no1` (centres unmarked) [Example 58, 4-[(3-{[(5-ethyl-1,2,4-oxadiazol-3-yl)methoxy]methyl}pyrrolidin-1-yl)carbonyl]benzene 1,3-diol], the inhibition at 1 µM is reported as 29.3% and the inhibition at 10 µM is reported as 72.5%.

`O=C(c1ccc(O)cc1O)N1CCC(O)(c2ccc(Cl)c(C(F)(F)F)c2)CC1` [Example 78, 4-({4-[4-chloro-3-(trifluoromethyl)phenyl]-4-hydroxypiperidin-1-yl}carbonyl)benzene-1,3-diol] gave an inhibition at 1 µM of 17.7% and an inhibition at 10 µM of 68.1%.

`O=C(c1ccc(Cl)cc1O)N1Cc2ccccc2C1` [Example 26, 5-chloro-2-(1,3-dihydro-2H-isoindol-2-ylcarbonyl)phenol] showed an inhibition at 1 µM of 1% and an inhibition at 10 µM of 39%.

In the case of `Cc1cccc(N2CCN(C(=O)c3ccc(O)cc3O)CC2)n1` [Example 101, 4-{[4-(6-methylpyridin-2-yl)piperazin-1-yl]carbonyl}benzene-1,3-diol], the inhibition at 1 µM is reported as 21.8% and the inhibition at 10 µM is reported as 70.2%.

`O=C(c1cc2ccccc2cc1O)N1Cc2ccccc2C1` [Example 24, 3-(1,3-dihydro-2H-isoindol-2-ylcarbonyl)-2-naphthol] gave an inhibition at 1 µM of 5.4% and an inhibition at 10 µM of 34.9%.

Compound `O=C(c1ccc(O)cc1O)N1CCOCC(O)(COCC2CC2)C1` (centres unmarked) [Example 38] has an inhibition at 1 µM of 27.4% and an inhibition at 10 µM of 68.4%.

In the case of `O=C(c1ccc(O)cc1O)N1CCOC(COc2cc(F)cc(F)c2)C1` (centres unmarked) [Example 114, 4-({2-[(3,5-difluorophenoxy)methyl]morpholin-4-yl}carbonyl)benzene-1,3-diol], the inhibition at 1 µM is reported as 60.2% and the inhibition at 10 µM is reported as 83.2%.

`O=C(c1ccc(O)cc1O)N1CCc2ccccc2C1` [Example 109, 4-(3,4-dihydroisoquinolin-2(1H)-ylcarbonyl)benzene-1,3-diol] gave an inhibition at 1 µM of 68% and an inhibition at 10 µM of 87.2%.

Compound `O=C(c1ccc(CO)cc1)N1Cc2ccccc2C1` [Example 184, [4-(1,3-dihydro-2H-isoindol-2-ylcarbonyl)phenyl] methanol] has an inhibition at 10 µM of 0%.

In the case of `O=C(c1ccc(O)cc1O)N1CCC2(C=Cc3cc(Cl)ccc3O2)CC1` [Example 79, 4-[(6-chloro-1′H-spiro[chromene-2,4′-piperidin]-1′-yl)carbonyl]benzene-1,3-diol], the inhibition at 1 µM is reported as 57.7% and the inhibition at 10 µM is reported as 85.1%.

`O=C(c1ccc(O)cc1O)N1CCOC(COc2ccccc2)C1` (centres unmarked) [Example 112, 4-{[2-(phenoxymethyl)morpholin-4-yl]carbonyl}benzene-1,3-diol] showed an inhibition at 1 µM of 48.1% and an inhibition at 10 µM of 80.5%.

With `O=C(c1ccc(O)cc1O)N1CCC(c2ncccn2)CC1` [Example 86, 4-[(4-pyrimidin-2-ylpiperidin-1-yl)carbonyl]benzene-1,3-diol] the inhibition at 1 µM was 23.9% and the inhibition at 10 µM was 59.9%.

Compound `O=C(c1ccc(O)cc1O)N1CCC(CCc2cccc(Cl)c2)CC1` [Example 48, 4-({4-[2-(3-chlorophenyl)ethyl]piperidin-1-yl}carbonyl)benzene-1,3-diol] has an inhibition at 1 µM of 63.3% and an inhibition at 10 µM of 87.5%.

Compound `COc1ccccc1-c1nnc(CN(C)C(=O)c2ccc(O)cc2O)o1` [Example 118, 2,4-Dihydroxy-N-{[5-(2-methoxyphenyl)-1,3,4-oxadiazol-2-yl]methyl}-N-methylbenzamide] has an inhibition at 1 µM of 15.4% and an inhibition at 10 µM of 57%.

`O=C(c1ccc(O)cc1O)N1CCCC(CCOc2ccccc2)C1` (centres unmarked) [Example 55, 4-{[3-(2-phenoxyethyl)piperidin-1-yl]carbonyl}benzene-1,3-diol] was tested, and the inhibition at 1 µM was 77.4% and the inhibition at 10 µM was 87%.

For `Cc1ccccc1C1(O)CCN(C(=O)c2ccc(O)cc2O)C1` (centres unmarked) [Example 100, 4-{[3-hydroxy-3-(2-methylphenyl)pyrrolidin-1-yl]carbonyl}benzene-1,3-diol], the inhibition at 1 µM was 35.9% and the inhibition at 10 µM was 79.1%.

Work on `O=C(c1ccc(O)cc1O)N1CCSCC1` [Example 133, 4-(thiomorpholin-4-ylcarbonyl)benzene-1,3-diol] yielded an inhibition at 1 µM of 42.6% and an inhibition at 10 µM of 80%.

`O=C(c1ccc(O)cc1O)N1CCCC1` [Example 90, 4-(pyrrolidin-1-ylcarbonyl)benzene-1,3-diol] showed an inhibition at 1 µM of 23.2% and an inhibition at 10 µM of 65.4%.

`O=C(c1ccc(O)cc1O)N1CCC(COc2ccc(F)cc2Cl)C1` (centres unmarked) [Example 89, 4-({3-[(2-chloro-4-fluorophenoxy)methyl]pyrrolidin-1-yl}carbonyl)benzene-1,3-diol] gave an inhibition at 1 µM of 45.7% and an inhibition at 10 µM of 77.8%.

In the case of `CN(Cc1ccc(Cl)cc1)C(=O)c1ccc(O)cc1O` [Example 106, N-(4-chlorobenzyl)-2,4-dihydroxy-N-methylbenzamide], the inhibition at 1 µM is reported as 26.9% and the inhibition at 10 µM is reported as 72.4%.

With `O=C(c1ccc(O)cc1O)N1CCc2nnc(-c3cccc4ccccc34)n2CC1` [Example 134, (2,4-Dihydroxy-phenyl)-(3-naphthalen-1-yl-4,5,7,8-tetrahydro-1,2,3a,6-tetraaza-azulen-6-yl)-methanone] the inhibition at 1 µM was 3.7% and the inhibition at 10 µM was 37.6%.

`Cc1ccc(O)c(C(=O)N2Cc3ccccc3C2)c1` [Example 30, 2-(1,3-dihydro-2H-isoindol-2-ylcarbonyl)-4-methylphenyl] was tested, and the inhibition at 1 µM was 5.8% and the inhibition at 10 µM was 61.2%.

`O=C(c1ccc(O)cc1O)N1CCn2cnnc2C1` [Example 136, 4-(5,6-dihydro[1,2,4]triazolo[4,3-a]pyrazin-7(8H)-ylcarbonyl)benzene-1,3-diol] gave an inhibition at 1 µM of 10.4% and an inhibition at 10 µM of 47.8%.

For `O=C(c1ccc(O)cc1O)N1CCC(Oc2ccccc2)CC1` [Example 71, 4-[(4-phenoxypiperidin-1-yl)carbonyl]benzene-1,3-diol], the inhibition at 1 µM was 37.3% and the inhibition at 10 µM was 79.3%.

With `O=C(c1ccc(O)cc1O)N1CCCC1c1ccc(Cl)cc1` (centres unmarked) [Example 84, 4-{[2-(4-chlorophenyl)pyrrolidin-1-yl]carbonyl}benzene-1,3-diol] the inhibition at 1 µM was 76.2% and the inhibition at 10 µM was 89.8%.

`O=C(c1ccc(O)cc1O)N1CCC(c2cccc(Cl)c2)C1` (centres unmarked) [Example 96, 4-{[3-(3-chlorophenyl)pyrrolidin-1-yl]carbonyl}benzene-1,3-diol] was tested, and the inhibition at 1 µM was 20.8% and the inhibition at 10 µM was 67.6%.

Work on `O=C(c1cccc2cccnc12)N1Cc2ccccc2C1` [Example 187, 8-(1,3-dihydro-2H-isoindol-2-ylcarbonyl) quinoline] yielded an inhibition at 1 µM of 0%.

Compound `O=C(c1ccc(O)cc1O)N1CCOC(COc2cccc(Cl)c2)C1` (centres unmarked) [Example 110, 4-({2-[(3-chlorophenoxy)methyl]morpholin-4-yl}carbonyl)benzene-1,3-diol] has an inhibition at 1 µM of 55.3% and an inhibition at 10 µM of 82.8%.

For `O=C(c1ccc(O)cc1O)N1CCOCC(Cc2ccc(Cl)c(Cl)c2)C1` (centres unmarked) [Example 99, 4-{[6-(3,4-dichlorobenzyl)-1,4-oxazepan-4-yl]carbonyl}benzene-1,3-diol], the inhibition at 1 µM was 52.2% and the inhibition at 10 µM was 80%.

`O=C(c1ccc(O)cc1O)N1CCC(c2ccc(F)cc2)C1` (centres unmarked) [Example 95, 4-{[3-(4-fluorophenyl)pyrrolidin-1-yl]carbonyl}benzene-1,3-diol] gave an inhibition at 1 µM of 22.7% and an inhibition at 10 µM of 70.3%.

Compound `O=C(c1cc(Cl)cc(Cl)c1O)N1Cc2ccccc2C1` [Example 208, 2,4-dichloro-6-(1,3-dihydro-2H-isoindol-2-ylcarbonyl)phenol] has an inhibition at 10 µM of 0%.
